Experimental data taken from patent US3959281A, “Piperazino substituted coumarin derivatives” (Cassella Farbwerke Mainkur Aktiengesellschaft, priority 1968, dated 1976).

What was measured:
coronary vessels = assay: vasodilator action on the coronary vessels: change in the oxygen tension in the coronary veinous blood (narcotized dogs, i.v.); format: in vivo; conditions: dog, 0.5 mg./kg. i.v., dihydrochloride
Method: (§1) With respect to the change in the oxygen tension in the coronary veinous blood, the pharmacological investigation of the vasodilator action on the coronary vessels was carried out in dogs according to the methods described by W.K.A. Schaper and his co-workers (see W.K.A. SCHAPER, R. XHONNEUX, and J.M. BOGAARD "Ueber die kontinuierliche Messung des Sauerstoffdruckes im venoesen Coronarblut" (Naunyn-Schmiedeberg's Arch. exp. Path. u. Pharmak. 245, 383-389 (1963)). The test preparations were applied intravenously to the narcotized and spontaneously breathing animals. On these test conditions the dilatation of the coronary arteries caused by the test substances along with the increase in the coronary blood flow led to an increase in the oxygen tension in the coronary veinous blood. This oxygen tension was measured according to polarographic methods by means of a platin electrode of the Gleichmann-Lubbers type (see U. GLEICHMANN and D.W. LUEBBERS "Die Messung des Sauerstoffdruckes in Gasen and Fluessigkeiten mit der Platin-Elektrode unter besonderer Berucksichtigung der Messung im Blut," Pflugers Arch. 271, 431-455 (1960)). The heart rate was continuously measured by electronic methods from systolic peaks of the arterial blood pressure. The arterial blood pressure was measured in the known manner in the femoral artery with the aid of an electromanometer of the Statham-strain-gauge type.
(§2) The following table gives the results of the pharmacological investigations which were carried through. The preparations were tested in the form of their respective dihydrochlorides: […]

[1] = heart rate, continuously measured from systolic peaks of the arterial blood pressure (narcotized dogs, i.v.); format: in vivo; conditions: dog, 0.5 mg./kg. i.v., dihydrochloride
Method: as §1, with “The arterial blood pressure was measured in the known manner in the femoral artery with the aid of an electromanometer of the Statham-strain-gauge type.” left out

[2] = arterial blood pressure in the femoral artery (narcotized dogs, i.v.); format: in vivo; conditions: dog, 0.5 mg./kg. i.v., dihydrochloride
Method: as §1, §2

LD 50 Mouse = conditions: in vivo, iv, dihydrochloride

Row | Compound | Maximal Increase in Oxygen Tension in the Coronary Veinous Blood (coronary vessels) | Maximal Increase in Oxygen Tension in the Coronary Veinous Blood (coronary vessels; duration) [min] | Maximal Change in the Heart Rate [1] [%] | Maximal Change in the Heart Rate ([1]; duration) [min] | Maximal Change in the Blood Pressure (diastolic) ([2]; diastolic) [%] | Maximal Change in the Blood Pressure ([2]; duration) [min] | Maximal Change in the Blood Pressure (systolic) ([2]; systolic) [%] | LD50 (LD 50 Mouse) [mg/kg]
1 | COc1ccc(CN2CCN(CC(Cc3c(C)c4ccc(OC)c(OC)c4oc3=O)OC(=O)c3cc(OC)c(OC)c(OC)c3)CC2)cc1OC (stereo not drawn) [3-[γ-(N-3,4-dimethoxy-benzyl-piperazino)-β-(3,4,5-trimethoxybenzoxy)-propyl]-4-methyl-7,8-dimethoxy-coumarin] | +60% | > 25 | -20 | > 25 | -66 | > 25 | -57 | –
2 | COc1cc(C(=O)OC(Cc2c(C)c3ccc(OC)c(OC)c3oc2=O)CN2CCN(CC(=O)Nc3c(C)cccc3C)CC2)cc(OC)c1OC (stereo not drawn) [3-[γ-{N-(2,6-dimethyl-anilidocarbonylmethyl)-piperazino}-β-(3,4,5-trimethoxybenzoxy)-propyl]-4-methyl-7,8-dimethoxy-courmarin] | +36% | > 20 | – | – | – | – | – | > 400
